“And” between values parts separate entries of the source, which are not always exact repeats. Equal values may be shown once. Toxic doses and inconclusive results are not listed.
Tested on: BDF1 mice, P388 leukemia ip, median survival T/C
Assay: NCI In Vivo Anticancer Drug Screen. Data for tumor model P388 Leukemia (intraperitoneal) in B6D2F1 (BDF1) mice
Settings: endpoint: median survival time, higher = longer survival
How it was run: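 In tumour-bearing mice, survival after compound treatment is set against the vehicle group and given as a quotient.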

[1] = dose: 50.0 mg/kg/injection, schedule: Q01DX009 (ip), vehicle: saline with Tween-80
[2] = dose: 100.0 mg/kg/injection, schedule: Q04DX003 (ip), vehicle: saline
[3] = dose: 200.0 mg/kg/injection, schedule: Q01DX009 (ip), vehicle: saline
[4] = dose: 400.0 mg/kg/injection, schedule: Q01DX009 (ip), vehicle: saline
[5] = dose: 200.0 mg/kg/injection, schedule: Q01DX009 (ip), vehicle: saline with Tween-80
[6] = dose: 50.0 mg/kg/injection, schedule: Q01DX009 (ip), vehicle: saline
[7] = dose: 12.5 mg/kg/injection, schedule: Q01DX009 (ip), vehicle: saline
[8] = dose: 25.0 mg/kg/injection, schedule: Q01DX009 (ip), vehicle: saline

O=C(O)c1ccc(C(Cl)(Cl)Cl)cc1
T/C (dose: 18.75 mg/kg/injection, schedule: Q01DX009 (ip), vehicle: Klucel (hydroxypropylcellulose) (HPC)): 95 % of control
T/C (dose: 33.0 mg/kg/injection, schedule: Q01DX009 (ip), vehicle: saline with Tween-80): 116 % of control
T/C [1]: 112 % of control
T/C (dose: 75.0 mg/kg/injection, schedule: Q01DX009 (ip), vehicle: saline with Tween-80): 108 % of control
T/C (dose: 150.0 mg/kg/injection, schedule: Q01DX009 (ip), vehicle: saline with Tween-80): 123 % of control

CCC[CH2][Sn]1([CH2]CCC)[O]C(=O)C[S]1
T/C (dose: 0.78 mg/kg/injection, schedule: Q04DX003 (ip), vehicle: saline with Tween-80): 100 % of control
T/C (dose: 1.56 mg/kg/injection, schedule: Q04DX003 (ip), vehicle: saline with Tween-80): 113 % of control
T/C (dose: 2.0 mg/kg/injection, schedule: Q04DX003 (ip), vehicle: saline with Tween-80): 112 % of control
T/C (dose: 3.0 mg/kg/injection, schedule: Q04DX003 (ip), vehicle: saline with Tween-80): 116 % of control

O=P(CCCl)(OCCCl)N1CCCCC1 (configuration not stated)
T/C (dose: 50.0 mg/kg/injection, schedule: Q04DX003 (ip), vehicle: saline): 104 % of control
T/C (dose: 100.0 mg/kg/injection, schedule: Q01DX009 (ip), vehicle: saline): 104 % of control
T/C [2]: 108 % of control
T/C [3]: 104 % of control
T/C [4]: 109 % of control

Cc1cc(C)c([I+]c2c(C)cc(C)cc2C)c(C)c1
T/C (dose: 0.28 mg/kg/injection, schedule: Q01DX009 (ip), vehicle: saline): 118 % of control
T/C (dose: 0.45 mg/kg/injection, schedule: Q04DX003 (ip), vehicle: saline): 109 % of control
T/C (dose: 0.56 mg/kg/injection, schedule: Q01DX009 (ip), vehicle: saline): 118 % of control
T/C (dose: 0.65 mg/kg/injection, schedule: Q04DX003 (ip), vehicle: saline): 109 % of control
T/C (dose: 1.1 mg/kg/injection, schedule: Q04DX003 (ip), vehicle: saline): 120 % of control
T/C (dose: 1.13 mg/kg/injection, schedule: Q01DX009 (ip), vehicle: saline): 109 % of control
T/C (dose: 1.65 mg/kg/injection, schedule: Q04DX003 (ip), vehicle: saline): 120 % of control
T/C (dose: 3.0 mg/kg/injection, schedule: Q01DX009 (ip), vehicle: Klucel (hydroxypropylcellulose) (HPC)): 103 % of control
T/C (dose: 3.0 mg/kg/injection, schedule: Q04DX003 (ip), vehicle: Klucel (hydroxypropylcellulose) (HPC)): 112 % of control
T/C (dose: 6.0 mg/kg/injection, schedule: Q01DX009 (ip), vehicle: Klucel (hydroxypropylcellulose) (HPC)): 111 % of control
T/C (dose: 6.0 mg/kg/injection, schedule: Q04DX003 (ip), vehicle: Klucel (hydroxypropylcellulose) (HPC)): 100 % of control
T/C (dose: 8.0 mg/kg/injection, schedule: Q04DX003 (ip), vehicle: Klucel (hydroxypropylcellulose) (HPC)): 95 % of control
T/C (dose: 8.0 mg/kg/injection, schedule: Q04DX003 (ip), vehicle: saline with Tween-80): 120 % of control
T/C (dose: 12.5 mg/kg/injection, schedule: Q04DX003 (ip), vehicle: Klucel (hydroxypropylcellulose) (HPC)): 115 % of control

COc1ccc(/C=C2\NC(=O)NC2=O)cc1O
T/C [1]: 106 % of control
T/C (dose: 100.0 mg/kg/injection, schedule: Q01DX009 (ip), vehicle: saline with Tween-80): 101 % of control
T/C [5]: 105 % of control

CC1(C)C2C=CC1C(CO)(CO)C2 (configuration not stated)
T/C (dose: 100.0 mg/kg/injection, schedule: Q01DX001 (ip), vehicle: saline): 100 % of control
T/C [2]: 100 % of control
T/C (dose: 200.0 mg/kg/injection, schedule: Q01DX001 (ip), vehicle: saline): 104 % of control
T/C (dose: 200.0 mg/kg/injection, schedule: Q04DX003 (ip), vehicle: saline): 91 % of control
T/C (dose: 400.0 mg/kg/injection, schedule: Q01DX001 (ip), vehicle: saline): 108 % of control
T/C (dose: 400.0 mg/kg/injection, schedule: Q04DX003 (ip), vehicle: saline): 100 % of control

CN(C)CC(Cl)CCl (configuration not stated)
T/C [6]: 103 % of control and 118 % of control
T/C (dose: 178.0 mg/kg/injection, schedule: Q01DX009 (ip), vehicle: saline): 178 % of control
T/C [3]: 118 % of control and 168 % of control and 209 % of control
T/C (dose: 266.0 mg/kg/injection, schedule: Q01DX009 (ip), vehicle: saline): 190 % of control
T/C [4]: 226 % of control and 200 % of control

OC1COC(O)C(O)C1O (configuration not stated)
T/C (dose: 250.0 mg/kg/injection, schedule: Q04DX003 (ip), vehicle: saline): 102 % of control
T/C (dose: 500.0 mg/kg/injection, schedule: Q04DX003 (ip), vehicle: saline): 100 % of control
T/C (dose: 1000.0 mg/kg/injection, schedule: Q04DX003 (ip), vehicle: saline): 100 % of control
T/C (dose: 2000.0 mg/kg/injection, schedule: Q04DX003 (ip), vehicle: saline): 111 % of control

CSC(=O)OCC1=CC2OC(=O)C3=COC(OC4OC(CO)C(O)C(O)C4O)C1C32 (configuration not stated)
T/C (dose: 2.0 mg/kg/injection, schedule: Q01DX009 (ip), vehicle: saline with Tween-80): 101 % of control
T/C (dose: 4.0 mg/kg/injection, schedule: Q01DX009 (ip), vehicle: saline with Tween-80): 101 % of control
T/C (dose: 16.0 mg/kg/injection, schedule: Q01DX009 (ip), vehicle: saline with Tween-80): 111 % of control

CN(C)c1ccc(N=Cc2cc[n+](C)cc2)cc1
T/C [7]: 104 % of control
T/C (dose: 16.5 mg/kg/injection, schedule: Q01DX009 (ip), vehicle: saline): 116 % of control and 122 % of control
T/C [8]: 101 % of control
T/C (dose: 37.5 mg/kg/injection, schedule: Q01DX009 (ip), vehicle: saline): 109 % of control and 118 % of control
T/C [6]: 118 % of control

N#CC1CCCC1=O (configuration not stated)
T/C (dose: 5.0 mg/kg/injection, schedule: Q01DX009 (ip), vehicle: saline): 108 % of control
T/C (dose: 10.0 mg/kg/injection, schedule: Q01DX009 (ip), vehicle: saline): 91 % of control

CN(C)c1nc(N(C)C)nc(N(C)C)n1
T/C (dose: 18.8 mg/kg/injection, schedule: Q01DX010 (ip), vehicle: saline): 100 % of control
T/C (dose: 20.0 mg/kg/injection, schedule: Q01DX009 (ip), vehicle: Klucel (hydroxypropylcellulose) (HPC)): 95 % of control
T/C (dose: 20.0 mg/kg/injection, schedule: Q01DX009 (ip), vehicle: saline with Tween-80): 104 % of control
T/C (dose: 25.0 mg/kg/injection, schedule: Q01DX001 (ip), vehicle: Klucel (hydroxypropylcellulose) (HPC)): 100 % of control
T/C (dose: 25.0 mg/kg/injection, schedule: Q04DX002 (ip), vehicle: Klucel (hydroxypropylcellulose) (HPC)): 101 % of control and 107 % of control
T/C (dose: 25.0 mg/kg/injection, schedule: Q04DX003 (ip), vehicle: Klucel (hydroxypropylcellulose) (HPC)): 96 % of control and 100 % of control
T/C (dose: 37.5 mg/kg/injection, schedule: Q01DX010 (ip), vehicle: saline): 100 % of control and 110 % of control
T/C (dose: 40.0 mg/kg/injection, schedule: Q01DX009 (ip), vehicle: Klucel (hydroxypropylcellulose) (HPC)): 100 % of control
T/C (dose: 40.0 mg/kg/injection, schedule: Q01DX009 (ip), vehicle: saline with Tween-80): 113 % of control
T/C (dose: 59.0 mg/kg/injection, schedule: Q01DX009 (ip), vehicle: saline with Tween-80): 107 % of control
T/C (dose: 75.0 mg/kg/injection, schedule: Q01DX010 (ip), vehicle: saline): 100 % of control and 115 % of control
T/C (dose: 80.0 mg/kg/injection, schedule: Q01DX009 (ip), vehicle: Klucel (hydroxypropylcellulose) (HPC)): 90 % of control
T/C (dose: 80.0 mg/kg/injection, schedule: Q01DX009 (ip), vehicle: saline with Tween-80): 99 % of control
T/C (dose: 89.0 mg/kg/injection, schedule: Q01DX009 (ip), vehicle: saline with Tween-80): 107 % of control
T/C (dose: 133.0 mg/kg/injection, schedule: Q01DX009 (ip), vehicle: saline with Tween-80): 115 % of control
T/C (dose: 150.0 mg/kg/injection, schedule: Q01DX010 (ip), vehicle: saline): 100 % of control and 104 % of control
T/C (dose: 160.0 mg/kg/injection, schedule: Q01DX009 (ip), vehicle: Klucel (hydroxypropylcellulose) (HPC)): 104 % of control
T/C [5]: 107 % of control

CC1(C)N=C(N)N=C(N)N1c1ccc(F)c(C(F)(F)F)c1
T/C (dose: 3.12 mg/kg/injection, schedule: Q01DX009 (ip), vehicle: saline): 120 % of control
T/C [7]: 169 % of control and 189 % of control
T/C (dose: 16.0 mg/kg/injection, schedule: Q01DX009 (ip), vehicle: saline): 216 % of control
T/C [8]: 245 % of control and 87 % of control and 191 % of control
T/C [6]: 216 % of control

[O-][n+]1onc2c(-c3ccccc3)nnc(-c3ccccc3)c21
T/C (dose: 100.0 mg/kg/injection, schedule: Q04DX003 (ip), vehicle: saline sonified): 104 % of control
T/C (dose: 200.0 mg/kg/injection, schedule: Q04DX003 (ip), vehicle: saline sonified): 90 % of control
T/C (dose: 400.0 mg/kg/injection, schedule: Q04DX003 (ip), vehicle: saline sonified): 100 % of control

Reference: PubChem BioAssay AID328 (DTP/NCI, 2004)
